One assay concerns the target T1, mitochondrial complex II (Homo sapiens, UniProt O14521+P21912+Q99643).
T1 construct: gene SDHB; native complex in permeabilized H2030BrM3 cells
The experiment in a line: oxygen consumption rate, Seahorse XF96, permeabilized cells. Format: cell-based.

The target in a further assay is T2, mitochondrial complex I (Homo sapiens, UniProt O75251+O75306+P03886).
T2 construct: gene MT-ND1; native complex in permeabilized H2030BrM3 cells
Described as above. Format: cell-based.

Among the data in publication PMC6525201, “Targeting lonidamine to mitochondria mitigates lung tumorigenesis and brain metastasis” (Nature Communications, 2019) are IC50 values, retold here.

One may read the IC50 as the point on the concentration scale where inhibition reaches its midpoint. Low values mean higher potency, high ones lower potency.

T1 sequence (P21912 29-280): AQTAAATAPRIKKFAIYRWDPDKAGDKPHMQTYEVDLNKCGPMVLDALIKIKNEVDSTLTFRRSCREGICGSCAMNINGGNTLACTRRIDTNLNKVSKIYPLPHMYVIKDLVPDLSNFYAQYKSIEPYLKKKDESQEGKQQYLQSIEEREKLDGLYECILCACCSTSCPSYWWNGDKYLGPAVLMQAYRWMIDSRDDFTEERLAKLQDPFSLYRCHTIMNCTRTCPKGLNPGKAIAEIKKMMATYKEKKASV
T1 sequence (Q99643 30-169): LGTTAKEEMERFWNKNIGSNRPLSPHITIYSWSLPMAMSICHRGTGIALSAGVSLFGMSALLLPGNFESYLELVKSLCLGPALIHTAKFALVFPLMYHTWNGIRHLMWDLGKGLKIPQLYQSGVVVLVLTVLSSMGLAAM
T1 sequence (O14521 57-159): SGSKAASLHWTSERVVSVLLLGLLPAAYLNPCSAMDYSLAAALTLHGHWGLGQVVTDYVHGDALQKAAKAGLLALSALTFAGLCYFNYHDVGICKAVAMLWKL
T1 sequence (P31040 43-664 partner): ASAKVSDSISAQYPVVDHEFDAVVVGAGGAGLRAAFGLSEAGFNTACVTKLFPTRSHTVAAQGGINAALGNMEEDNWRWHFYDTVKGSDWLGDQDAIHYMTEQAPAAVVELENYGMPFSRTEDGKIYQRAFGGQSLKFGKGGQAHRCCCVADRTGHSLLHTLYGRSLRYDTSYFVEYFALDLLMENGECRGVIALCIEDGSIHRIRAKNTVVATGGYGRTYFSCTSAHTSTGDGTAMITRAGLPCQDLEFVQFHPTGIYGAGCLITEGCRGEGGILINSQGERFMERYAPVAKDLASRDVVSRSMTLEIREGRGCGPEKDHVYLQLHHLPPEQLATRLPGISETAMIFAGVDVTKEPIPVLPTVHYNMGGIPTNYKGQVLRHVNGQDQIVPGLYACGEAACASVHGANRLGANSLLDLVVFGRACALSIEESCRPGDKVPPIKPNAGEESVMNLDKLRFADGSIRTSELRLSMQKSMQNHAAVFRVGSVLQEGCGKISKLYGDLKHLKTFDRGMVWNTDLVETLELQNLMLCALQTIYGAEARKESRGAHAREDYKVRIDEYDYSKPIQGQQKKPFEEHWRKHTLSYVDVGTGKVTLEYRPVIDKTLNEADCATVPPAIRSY

As for `O=C(NCCCCCCCCCC[P+](c1ccccc1)(c1ccccc1)c1ccccc1)c1nn(Cc2ccc(Cl)cc2Cl)c2ccccc12` [Mito-LND], the IC50 at mitochondrial complex II was found to be 2.4 µM; at mitochondrial complex I, 1.2 µM.

On to `O=C(O)c1nn(Cc2ccc(Cl)cc2Cl)c2ccccc12` [LND], for which the results for the half-inhibitory concentration (IC50) against mitochondrial complex II and against mitochondrial complex I were 390 µM and 444 µM, respectively.
